In the assay the target is FP receptor (Homo sapiens (Human), UniProt P43088). In words: In vitro test of inhibition of human FP receptor activity (PGF2α-induced calcium flux in FP-expressing CHEM1 cells). It is filed as cell-based. As to conditions: PGF2α 2 nM, some mean values of multiple determinations. The method in brief: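 FP antagonism in FP-expressing CHEM1 cells loaded with Fluo-8. Compound preincubated 10 min at 37° C, then receptor stimulated with 2 nM (final) PGF2α in calcium-free Tyrode with 2 mM CaCl2.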
Chain of FP receptor (P43088 whole entry): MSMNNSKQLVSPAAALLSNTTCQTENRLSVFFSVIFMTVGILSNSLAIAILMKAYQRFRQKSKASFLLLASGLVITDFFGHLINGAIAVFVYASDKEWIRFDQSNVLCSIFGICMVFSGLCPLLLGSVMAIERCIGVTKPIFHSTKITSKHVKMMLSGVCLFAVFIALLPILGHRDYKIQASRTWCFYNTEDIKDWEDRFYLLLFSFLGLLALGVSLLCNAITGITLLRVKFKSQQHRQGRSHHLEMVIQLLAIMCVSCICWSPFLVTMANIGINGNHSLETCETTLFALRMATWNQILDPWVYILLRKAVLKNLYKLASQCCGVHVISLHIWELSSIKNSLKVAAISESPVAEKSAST

What is called IC50 is the concentration that gives 50% inhibition. `CCC1CCCN(c2nc3ccc(Br)cc3c(C(=O)NCC(CCC(=O)O)c3ccccc3C(F)(F)F)c2C)C1` (single isomer, unassigned; (+)) [Example 196, (+)-5-[({6-Bromo-2-[3-ethylpiperidin-1-yl]-3-methylquinolin-4-yl}carbonyl)amino]-4-[2-(trifluoromethyl)phenyl]pentanoic acid]: the IC50 came out at 2.6 nM. On to `Cc1c(N2CCCC(C)C2)nc2ccc(Br)cc2c1C(=O)NCC(CCC(=O)O)c1ccccc1C(F)(F)F` (single isomer, unassigned; (+)) [Example 197, (+)-5-[({6-Bromo-3-methyl-2-[3-methylpiperidin-1-yl]quinolin-4-yl}carbonyl)amino]-4-[2-(trifluoromethyl)phenyl]pentanoic acid], for which the concentration for half-maximal inhibition (IC50) stood at 21 nM.

As for `Cc1c(N2CCCC(C)C2)nc2ccc(Br)cc2c1C(=O)NCC(CCC(=O)O)c1ccccc1C(F)(F)F` (single isomer, unassigned; (+)) [Example 198, (+)-5-[({6-Bromo-3-methyl-2-[3-methylpiperidin-1-yl]quinolin-4-yl}carbonyl)amino]-4-[2-(trifluoromethyl)phenyl]pentanoic acid], the IC50 worked out at 3.7 nM. For `Cc1c(N2CCCC(F)C2)nc2ccc(Br)cc2c1C(=O)NCC(CCC(=O)O)c1ccccc1OC(F)(F)F` (single isomer, unassigned; (+)) [Example 203, (+)-5-[({6-Bromo-2-[3-fluoropiperidin-1-yl]-3-methylquinolin-4-yl}carbonyl)amino]-4-[2-(trifluoromethoxy)phenyl]pentanoic acid], the IC50 turned out to be 11 nM. The result for `Cc1c(N2CCCC(F)C2)nc2ccc(Br)cc2c1C(=O)NCC(CCC(=O)O)c1ccccc1OC(F)(F)F` (single isomer, unassigned; (+)) [Example 204, (+)-5-[({6-Bromo-2-[3-fluoropiperidin-1-yl]-3-methylquinolin-4-yl}carbonyl)amino]-4-[2-(trifluoromethoxy)phenyl]pentanoic acid] reads 2.6 nM; that for `CCC1CCCN(c2nc3ccc(Br)cc3c(C(=O)NCC(CCC(=O)O)c3ccccc3OC(F)(F)F)c2C)C1` (single isomer, unassigned; (+)) [Example 205, (+)-5-[({6-Bromo-2-[3-ethylpiperidin-1-yl]-3-methylquinolin-4-yl}carbonyl)amino]-4-[2-(trifluoromethoxy)phenyl]pentanoic acid], 0.41 nM. Under `CCC1CCCN(c2nc3ccc(Br)cc3c(C(=O)NCC(CCC(=O)O)c3ccccc3OC(F)(F)F)c2C)C1` (single isomer, unassigned; (+)) [Example 208, (+)-5-[({6-Bromo-2-[3-ethylpiperidin-1-yl]-3-methylquinolin-4-yl}carbonyl)amino]-4-[2-(trifluoromethoxy)phenyl]pentanoic acid] stands 1.4 nM; under `Cc1c(N2CCCC(C)C2)nc2ccc(Br)cc2c1C(=O)NCC(CCC(=O)O)c1ccccc1OC(F)(F)F` (single isomer, unassigned; (+)) [Example 211, (+)-5-[({6-Bromo-3-methyl-2-[3-methylpiperidin-1-yl]quinolin-4-yl}carbonyl)amino]-4-[2-(trifluoromethoxy)phenyl]pentanoic acid], 17 nM; under `Cc1c(N2CCCC(C)C2)nc2ccc(Br)cc2c1C(=O)NCC(CCC(=O)O)c1ccccc1OC(F)(F)F` (single isomer, unassigned; (+)) [Example 212, (+)-5-[({6-Bromo-3-methyl-2-[3-methylpiperidin-1-yl]quinolin-4-yl}carbonyl)amino]-4-[2-(trifluoromethoxy)phenyl]pentanoic acid], 1.9 nM. The result for `Cc1ccc(F)cc1C(CCC(=O)O)CNC(=O)c1c(C)c(N2CCCC(F)(F)C2)nc2ccc(Br)cc12` (single isomer, unassigned; (+)) [Example 214, (+)-5-({[6-Bromo-2-(3,3-difluoropiperidin-1-yl)-3-methylquinolin-4-yl]carbonyl}amino)-4-(5-fluoro-2-methylphenyl)pentanoic acid] reads 21 nM. Consider `Cc1c(N2CCCC2)nc2ccc(Br)cc2c1C(=O)NCC(CCC(=O)O)c1c(F)ccc(F)c1Cl` (single isomer, unassigned; (+)) [Example 215, (+)-5-({[6-Bromo-3-methyl-2-(pyrrolidin-1-yl)quinolin-4-yl]carbonyl}amino)-4-(2-chloro-3,6-difluorophenyl)pentanoic acid], for which the IC50 was 3.9 nM. For `Cc1c(N2CCCC(F)(F)C2)nc2ccc(Br)cc2c1C(=O)NCC(CCC(=O)O)c1c(F)ccc(F)c1Cl` (single isomer, unassigned; (+)) [Example 217, (+)-5-({[6-Bromo-2-(3,3-difluoropiperidin-1-yl)-3-methylquinolin-4-yl]carbonyl}amino)-4-(2-chloro-3,6-difluorophenyl)pentanoic acid], the IC50 was 50 nM. Under `Cc1c(N2CCCCCC2)nc2ccc(Br)cc2c1C(=O)NCC(CCC(=O)O)c1c(F)ccc(F)c1Cl` (single isomer, unassigned; (+)) [Example 219, (+)-5-({[2-(Azepan-1-yl)-6-bromo-3-methylquinolin-4-yl]carbonyl}amino)-4-(2-chloro-3,6-difluorophenyl)pentanoic acid] stands 29 nM; under `CCC1CCCN(c2nc3ccc(Br)cc3c(C(=O)NCC(CCC(=O)O)c3cc(F)ccc3F)c2C)C1` (single isomer, unassigned; (+)) [Example 227, (+)-5-[({6-Bromo-2-[3-ethylpiperidin-1-yl]-3-methylquinolin-4-yl}carbonyl)amino]-4-(2,5-difluorophenyl)pentanoic acid], 57 nM; under `CCC1CCCN(c2nc3ccc(Br)cc3c(C(=O)NCC(CCC(=O)O)c3cc(F)ccc3F)c2C)C1` (single isomer, unassigned; (+)) [Example 228, (+)-5-[({6-Bromo-2-[3-ethylpiperidin-1-yl]-3-methylquinolin-4-yl}carbonyl)amino]-4-(2,5-difluorophenyl)pentanoic acid], 1.1 nM. The result for `Cc1ccccc1C(CCC(=O)O)CNC(=O)c1c(C)c(N2CCCC(F)(F)C2)nc2ccc(Br)cc12` (single isomer, unassigned; (+)) [Example 231, (+)-5-({[6-Bromo-2-(3,3-difluoropiperidin-1-yl)-3-methylquinolin-4-yl]carbonyl}amino)-4-(2-methylphenyl)pentanoic acid] reads 39 nM. Under `Cc1ccccc1C(CCC(=O)O)CNC(=O)c1c(C)c(N2CCCC2)nc2ccc(Br)cc12` (single isomer, unassigned; (+)) [Example 233, (+)-5-({[6-Bromo-3-methyl-2-(pyrrolidin-1-yl)quinolin-4-yl]carbonyl}amino)-4-(2-methylphenyl)pentanoic acid] stands 84 nM; under `COc1ccccc1C(CCC(=O)O)CNC(=O)c1c(C)c(N2CCCCC2)nc2ccc(Br)cc12` (single isomer, unassigned; (+)) [Example 235, (+)-5-({[6-Bromo-3-methyl-2-(piperidin-1-yl)quinolin-4-yl]carbonyl}amino)-4-(2-methoxyphenyl)pentanoic acid], 1.4 nM; under `COc1ccccc1C(CCC(=O)O)CNC(=O)c1c(C)c(N2CCCC2)nc2ccc(Br)cc12` (single isomer, unassigned; (+)) [Example 237, (+)-5-({[6-Bromo-3-methyl-2-(pyrrolidin-1-yl)quinolin-4-yl]carbonyl}amino)-4-(2-methoxyphenyl)pentanoic acid], 4.3 nM. On to `COc1ccccc1C(CCC(=O)O)CNC(=O)c1c(C)c(N2CCCCCC2)nc2ccc(Br)cc12` (single isomer, unassigned; (+)) [Example 239, (+)-5-({[2-(Azepan-1-yl)-6-bromo-3-methylquinolin-4-yl]carbonyl}amino)-4-(2-methoxyphenyl)pentanoic acid], for which the IC50 was determined as 1.4 nM. Under `Cc1c(N2CCCCC2)nc2ccc(Br)cc2c1C(=O)NCC(CCC(=O)O)c1c(F)cccc1F` (single isomer, unassigned; (+)) [Example 245, (+)-5-({[6-Bromo-3-methyl-2-(piperidin-1-yl)quinolin-4-yl]carbonyl}amino)-4-(2,6-difluorophenyl)pentanoic acid] stands 27 nM. The result for `Cc1c(N2CCCC(F)(F)C2)nc2ccc(Br)cc2c1C(=O)NCC(CCC(=O)O)c1c(F)cccc1F` (single isomer, unassigned; (+)) [Example 251, (+)-5-({[6-Bromo-2-(3,3-difluoropiperidin-1-yl)-3-methylquinolin-4-yl]carbonyl}amino)-4-(2,6-difluorophenyl)pentanoic acid] reads 72 nM; that for `Cc1c(N2CCCCC2)nc2ccc(Br)cc2c1C(=O)NCC(CCC(=O)O)c1cc(F)ccc1F` (single isomer, unassigned; (+)) [Example 257, (+)-5-({[6-Bromo-3-methyl-2-(piperidin-1-yl)quinolin-4-yl]carbonyl}amino)-4-(2,5-difluorophenyl)pentanoic acid], 15 nM. Turning to `Cc1c(N2CCCC2)nc2ccc(Br)cc2c1C(=O)NCC(CCC(=O)O)c1cc(F)ccc1F` (single isomer, unassigned; (+)) [Example 259, (+)-5-({[6-Bromo-3-methyl-2-(pyrrolidin-1-yl)quinolin-4-yl]carbonyl}amino)-4-(2,5-difluorophenyl)pentanoic acid], the half-inhibitory concentration (IC50) stood at 55 nM. Under `Cc1c(N2CCCC(F)(F)C2)nc2ccc(Br)cc2c1C(=O)NCC(CCC(=O)O)c1cc(F)ccc1F` (single isomer, unassigned; (+)) [Example 263, (+)-5-({[6-Bromo-2-(3,3-difluoropiperidin-1-yl)-3-methylquinolin-4-yl]carbonyl}amino)-4-(2,5-difluorophenyl)pentanoic acid] stands 28 nM. Under `Cc1c(N2CCCC(F)(F)C2)nc2ccc(Br)cc2c1C(=O)NCC(CCC(=O)O)c1c(Cl)cccc1Cl` (single isomer, unassigned; (+)) [Example 266, (+)-5-({[6-Bromo-2-(3,3-difluoropiperidin-1-yl)-3-methylquinolin-4-yl]carbonyl}amino)-4-(2,6-dichlorophenyl)pentanoic acid] stands 37 nM.

These data come from patent US11149018B2, “Substituted N-arylethyl-2-aminoquinoline-4-carboxamides and use thereof” (Bayer Aktiengesellschaft, priority 2017, dated 2021).
